The NIST ThermoML archive (doi:10.1016/j.jct.2018.02.003)
Numbers after ± are expanded uncertainties.

Conditions: Liquid, Vibrating tube method

COC(F)(C(F)(F)C(F)(F)F)C(F)(C(F)(F)F)C(F)(F)F (centres undefined)
mass density (333.15 K, 25000 kPa): 1653 ± 1.2 kg/m3
mass density (333.15 K, 30000 kPa): 1665.2 ± 1.3 kg/m3
mass density (333.15 K, 35000 kPa): 1676.5 ± 1.4 kg/m3
mass density (333.15 K, 40000 kPa): 1687.3 ± 1.5 kg/m3
mass density (333.15 K, 45000 kPa): 1697.5 ± 1.7 kg/m3
mass density (333.15 K, 50000 kPa): 1707 ± 1.8 kg/m3
mass density (333.15 K, 55000 kPa): 1716.1 ± 2 kg/m3
mass density (333.15 K, 60000 kPa): 1724.7 ± 2.1 kg/m3
mass density (333.15 K, 65000 kPa): 1733.1 ± 2.3 kg/m3
mass density (333.15 K, 70000 kPa): 1741 ± 2.5 kg/m3
mass density (333.15 K, 80000 kPa): 1756.1 ± 2.8 kg/m3
mass density (333.15 K, 90000 kPa): 1770.2 ± 3.2 kg/m3
mass density (333.15 K, 100000 kPa): 1783.3 ± 3.5 kg/m3
mass density (333.15 K, 110000 kPa): 1795.6 ± 3.9 kg/m3
mass density (333.15 K, 120000 kPa): 1807.3 ± 4.3 kg/m3
mass density (333.15 K, 130000 kPa): 1818.5 ± 4.6 kg/m3
mass density (333.15 K, 140000 kPa): 1829.1 ± 5 kg/m3
mass density (353.15 K, 100 kPa): 1521.7 ± 0.8 kg/m3
mass density (353.15 K, 1000 kPa): 1526.5 ± 0.8 kg/m3
mass density (353.15 K, 5000 kPa): 1545.6 ± 0.8 kg/m3
mass density (353.15 K, 10000 kPa): 1566.5 ± 0.9 kg/m3
mass density (353.15 K, 15000 kPa): 1584.7 ± 1 kg/m3
mass density (353.15 K, 20000 kPa): 1601 ± 1.1 kg/m3
mass density (353.15 K, 25000 kPa): 1615.8 ± 1.2 kg/m3
mass density (353.15 K, 30000 kPa): 1629.5 ± 1.3 kg/m3
mass density (353.15 K, 35000 kPa): 1642.1 ± 1.4 kg/m3
mass density (353.15 K, 40000 kPa): 1653.7 ± 1.5 kg/m3
mass density (353.15 K, 45000 kPa): 1664.8 ± 1.6 kg/m3
mass density (353.15 K, 50000 kPa): 1675.2 ± 1.7 kg/m3
mass density (353.15 K, 55000 kPa): 1685.1 ± 1.9 kg/m3
mass density (353.15 K, 60000 kPa): 1694.5 ± 2.1 kg/m3
mass density (353.15 K, 65000 kPa): 1703.5 ± 2.2 kg/m3
mass density (353.15 K, 70000 kPa): 1712.1 ± 2.4 kg/m3
mass density (353.15 K, 80000 kPa): 1728.1 ± 2.7 kg/m3
mass density (353.15 K, 90000 kPa): 1743.1 ± 3.1 kg/m3
mass density (353.15 K, 100000 kPa): 1757 ± 3.4 kg/m3
mass density (353.15 K, 110000 kPa): 1770.1 ± 3.8 kg/m3
mass density (353.15 K, 120000 kPa): 1782.5 ± 4.1 kg/m3
mass density (353.15 K, 130000 kPa): 1794.1 ± 4.5 kg/m3
mass density (353.15 K, 140000 kPa): 1805.2 ± 4.9 kg/m3
mass density (373.15 K, 1000 kPa): 1473.5 ± 0.8 kg/m3
mass density (373.15 K, 5000 kPa): 1497.1 ± 0.8 kg/m3
mass density (373.15 K, 10000 kPa): 1521.9 ± 0.9 kg/m3
mass density (373.15 K, 15000 kPa): 1543.1 ± 0.9 kg/m3
mass density (373.15 K, 20000 kPa): 1561.5 ± 1 kg/m3
mass density (373.15 K, 25000 kPa): 1578.3 ± 1.1 kg/m3
mass density (373.15 K, 30000 kPa): 1593.7 ± 1.2 kg/m3
mass density (373.15 K, 35000 kPa): 1607.7 ± 1.3 kg/m3
mass density (373.15 K, 40000 kPa): 1620.4 ± 1.4 kg/m3
mass density (373.15 K, 45000 kPa): 1632.5 ± 1.5 kg/m3
mass density (373.15 K, 50000 kPa): 1643.9 ± 1.7 kg/m3
mass density (373.15 K, 55000 kPa): 1654.6 ± 1.8 kg/m3
mass density (373.15 K, 60000 kPa): 1664.7 ± 2 kg/m3
mass density (373.15 K, 65000 kPa): 1674.3 ± 2.1 kg/m3
mass density (373.15 K, 70000 kPa): 1683.4 ± 2.3 kg/m3
mass density (373.15 K, 80000 kPa): 1700.6 ± 2.6 kg/m3
mass density (373.15 K, 90000 kPa): 1716.5 ± 3 kg/m3
mass density (373.15 K, 100000 kPa): 1731.3 ± 3.3 kg/m3
mass density (373.15 K, 110000 kPa): 1745.1 ± 3.6 kg/m3
mass density (373.15 K, 120000 kPa): 1758.1 ± 4 kg/m3
mass density (373.15 K, 130000 kPa): 1770.3 ± 4.4 kg/m3
mass density (373.15 K, 140000 kPa): 1782 ± 4.7 kg/m3
mass density (393.15 K, 1000 kPa): 1417.2 ± 0.8 kg/m3
mass density (393.15 K, 5000 kPa): 1446.9 ± 0.8 kg/m3
mass density (393.15 K, 10000 kPa): 1476.7 ± 0.9 kg/m3
mass density (393.15 K, 15000 kPa): 1501.4 ± 0.9 kg/m3
mass density (393.15 K, 20000 kPa): 1522.8 ± 1 kg/m3
mass density (393.15 K, 25000 kPa): 1541.5 ± 1.1 kg/m3
mass density (393.15 K, 30000 kPa): 1558.4 ± 1.2 kg/m3
mass density (393.15 K, 35000 kPa): 1573.8 ± 1.3 kg/m3
mass density (393.15 K, 40000 kPa): 1588 ± 1.4 kg/m3
mass density (393.15 K, 45000 kPa): 1601 ± 1.5 kg/m3
mass density (393.15 K, 50000 kPa): 1613.3 ± 1.6 kg/m3
mass density (393.15 K, 55000 kPa): 1624.9 ± 1.7 kg/m3
mass density (393.15 K, 60000 kPa): 1635.8 ± 1.9 kg/m3
mass density (393.15 K, 65000 kPa): 1646 ± 2 kg/m3
mass density (393.15 K, 70000 kPa): 1655.8 ± 2.2 kg/m3
mass density (393.15 K, 80000 kPa): 1674.1 ± 2.5 kg/m3
mass density (393.15 K, 90000 kPa): 1690.9 ± 2.8 kg/m3
mass density (393.15 K, 100000 kPa): 1706.5 ± 3.2 kg/m3
mass density (393.15 K, 110000 kPa): 1721 ± 3.5 kg/m3
mass density (393.15 K, 120000 kPa): 1734.7 ± 3.9 kg/m3
mass density (393.15 K, 130000 kPa): 1747.5 ± 4.2 kg/m3
mass density (393.15 K, 140000 kPa): 1759.7 ± 4.6 kg/m3
